Patent US7557107B2, “Farnesyl protein transferase inhibitors as antitumor agents” (Schering Coporation, priority 2003, dated 2009)
“And” between values parts separate entries of the source, which are not always exact repeats. Equal entries are not always repeated.

What was measured:
[1] = molecular target: purified human farnesyl protein transferase (Homo sapiens, UniProt P49354+P49356); test: FPT activity: transfer of [3H] farnesyl from [3H] farnesyl pyrophosphate to biotinylated H-ras peptide (SPA); assay type: biochemical; conditions: 0.03 nM enzyme, 37° C., 60 minutes
Protocol: FPT activity was determined by measuring the transfer of [^3H] farnesyl from [^3H] farnesyl pyrophosphate to a biotinylated peptide derived from the C-terminus of H-ras (biotin-CVLS). The reaction mixture contains: 50 mM Tris pH7.7, 5 mM MgCl2, 5 μM Zn^++, 5 mM DTT, 0.1% Triton-X, 0.05 μM peptide, 0.03 nM purified human farnesyl protein transferase, 0.180 μM [^3H] farnesyl pyrophosphate, plus the indicated concentration of tricyclic compound or vehicle control in a total volume of 100 μl. The reaction was incubated in a yortemp shaking incubator at 37° C., 45 RPM for 60 minutes and stopped with 150 μl of 0.25 M EDTA containing 0.5% BSA and 1.3 mg/ml Streptavidin SPA beads. Radioactivity was measured in a Wallach 1450 Microbeta liquid scintillation counter. Percent inhibition was calculated relative to the vehicle control.

Human tumor cells = test: Soft Agar Assay (anchorage-independent growth); assay type: cell-based; conditions: colony outgrowth 10-16 days, MTT stain
Protocol: Anchorage-independent growth is a characteristic of tumorigenic cell lines. Human tumor cells can be suspended in growth medium containing 0.3% agarose and an indicated concentration of a famesyl transferase inhibitor. The solution can be overlayed onto growth medium solidified with 0.6% agarose containing the same concentration of farnesyl transferase inhibitor as the top layer. After the top layer is solidified, plates can be incubated for 10-16 days at 37° C. under 5% CO2 to allow colony outgrowth. After incubation, the colonies can be stained by overlaying the agar with a solution of MTT (3-[4,5-dimethyl-thiazol-2-yl]-2,5-diphenyltetrazolium bromide, Thiazolyl blue) (1 mg/mL in PBS). Colonies can be counted and the IC50's can be determined.

Structure (SMILES) | IC50 [1] | IC50 (Human tumor cells) [nM]
COC1(C(=O)N[C@H](C2=Cc3cccnc3[C@@H](N3CCN(C(=O)OCC4(C)CC4)CC3)c3ccc(Cl)cc32)c2cncn2C)CC1 [Compound 120.1] | 0.5 to 5 nM | 
COC1(C(=O)N[C@H](C2=Cc3cccnc3[C@@H](N3CCN(C(=O)OCC(C)(C)C)CC3)c3ccc(Cl)cc32)c2cncn2C)CC1 [Compound 119.1] | 0.5 to 5 nM | 
COC1(C(=O)N[C@H](C2=Cc3cccnc3[C@@H](N3CCN(C(=O)OC(C)C)CC3)c3ccc(Cl)cc32)c2cncn2C)CC1 [Compound 152.1, 4-{8-Chloro-6-[[(1-methoxy-cyclopropanecarbonyl)-amino]-(3-methyl-3H-imidazol-4-yl)-methyl]-11H-benzo[5.6]cyclohepta[1,2-b]pyridin-11-yl}-piperazine-1-carboxylic acid isopropyl ester] | 0.5 to 5 nM | 
COCC(=O)N[C@H](C1=Cc2cccnc2[C@@H](N2CCN(C(=O)OC(C)C)CC2)c2ccc(Cl)cc21)c1cncn1C [Compound 136.1] | 0.5 to 5 nM and 0.6 nM | 0.6

The next lines start with the values.

IC50 [1] | IC50 (Human tumor cells) [nM] | Structure (SMILES)
0.5 to 5 nM |  | CC(C)C1(OC(=O)N2CCN([C@H]3c4ccc(Cl)cc4C([C@@H](NC(=O)OC4(C)CC4)c4cncn4C)=Cc4cccnc43)CC2)CC1 [Compound 118.1]
0.5 to 5 nM |  | Cn1cncc1[C@H](NC(=O)OC1(C2CC2)CC1)C1=Cc2cccnc2[C@@H](N2CCN(C(=O)OC3CCCC3)CC2)c2ccc(Cl)cc21 [Compound 112.1, 4-{6-[(Bicyclopropyl-1-yloxycarbonylamino)-(3-methyl-3H-imidazol-4-yl)-methyl]-8-chloro-11H-benzo[5,6]cyclohepta[1,2-b]pyridin-11-yl}-piperazine-1-carboxylic acid cyclopentyl ester]
0.5 to 5 nM and 1.5 nM | < 0.5 | Cn1cncc1[C@H](NC(=O)OC1(C)CC1)C1=Cc2cccnc2[C@@H](N2CCN(C(=O)OC3(C)CC3)CC2)c2ccc(Cl)cc21 [Compound 108.1]
